Assay results published in US20240018230A1, “METHODS FOR TREATING OR MODULATING AN INFLAMMATORY RESPONSE” (St. Jude Children's Research Hospital, Inc., priority 2020, published 2024).

Key:
[1] = system: bone marrow-derived macrophages (BMDMs); assay: Real-time imaging of cell death (propidium iodide, INCUCYTE) in BMDMs; assay type: cell-based, mouse; conditions: for inhibition of cell death in response to TNF-α and IFN-γ treatment: wild-type BMDMs co-treated with 1 mM L-NAME or 100 μM 1400W; for induction of cell death in BMDMs: standard cytokine concentrations (25 ng/mL TNF-α, 50 ng/mL IFN-γ)
[2] = system: colon cancer and melanoma cell lines; assay: NO inhibition of TNF-α plus IFN-γ-induced cancer cell death; assay type: cell-based, human; conditions: 1 mM L-NAME or 100 μM 1400W
Method: Cell Culture and Stimulation Methods. […] Cancer cells were seeded a day before stimulation. On the day of stimulation, the cells were washed once with warm and sterile DPBS, followed by treatment with different cytokines for 48 hours. The concentration of the cytokines used were 25 ng/mL of IL-6 (Peprotech), IL-8 (Peprotech), IL-18 (R&D), IL-15 (Peprotech), IL-1α (Peprotech), IL-1β (Peprotech), IL-2 (Peprotech), TNF-α (Peprotech), and IFN-γ (Peprotech). For the inhibition of nitric oxide (NO), cancer cells were co-treated with 1 mM of L-NAME hydrochloride (TOCRIS) or 100 μM of […] dihydrochloride (Enzo Life Sciences) along with the cytokines. For inhibition of the JAK signaling pathway, the cancer cells were co-treated with 5 μM of baricitinib (Achemblock) all through the experiment. Cell Death Analysis. The kinetics of cell death were measured using a two-color INCUCYTE® S3 imaging system (Essen Biosciences). […] A series of images were acquired at 1-hour time intervals for up to 48 hours post-treatment with a 20× objective and analyzed using the INCUCYTE® S3 software, which allows precise analysis of the number of dye-positive dead cells present in each image. […]

BMDMs = assay: Immunoblot analysis of cell death effectors in BMDMs; assay type: cell-based, mouse; conditions: for cleavage of caspase-3, -7 and -8: single cytokines compared with the combination
[3] = system: HCT-116 colon cancer cells; assay: Western blot of PANoptosis markers in HCT-116; assay type: cell-based, human
Method: Western Blot Analysis. For the western blot analyses of caspases, cancer cells were seeded a day before stimulation at a density of 0.5×10^6 cells/well in 6-well cell culture plates. The proteins from the indicated cell types were collected by combining cell lysates with culture supernatants with caspase lysis buffer (with 1× protease inhibitors, 1× phosphatase inhibitors, 10% NP-40, and 25 mM DTT) and 4× sample loading buffer (containing SDS and 2-mercaptoethanol). For the western blot analysis of all other signaling proteins, the cells were lysed in RIPA buffer, supplemented with protease inhibitor and phosphoStop as per the manufacturer's instructions and sample loading buffer. […]

COLO-205 cell tumors = assay: NSG mouse xenograft tumor model, intratumoral cytokines; assay type: in vivo, NSG mice; conditions: intra-tumoral administration on day 12, 14 and 16 post-transplantation
Method: NSG Mouse Xenograft Tumor Model. The NSG mice (NOD/SCID-gamma null mouse strain that lacks […]) were used as the model recipients for the subcutaneous transplantation of human COLO-205 cancer cells. Briefly, 8- to 10-week-old NSG mice were shaved on their lower backs and transplanted with 2×10^6 COLO-205 cells in 200 μl of medium prepared by mixing (1:1) RPMI and a solubilized basement membrane preparation sold under the tradename MATRIGEL® (BD Bioscience). The mice were monitored regularly for engraftment and growth of COLO-205 cancer cell tumors. The recipient mice were divided into four groups and treated intratumorally with injection of the indicated cytokines or PBS (groups: (i) PBS, (ii) TNF-α, (iii) IFN-γ, or (iv) TNF-α(and IFN-γ) on day 12, 14 and 16 post-transplantation of the tumor cells. The tumor growth was monitored and measured using digital calipers, and the volume of the tumors were calculated using the formula: volume=(length×width^2)×½.

[4] = In vivo TNF-α and IFN-γ-induced inflammatory shock (mortality, serum chemistry, blood counts, flow cytometry, histopathology); parameters: species or system mice; conditions: i.p. 10 μg TNF-α, 20 μg IFN-γ, or both
Method: In vivo TNF-α and IFN-γ-Induced Inflammatory Shock. Six- to eight-week-old mice of the indicated genotypes were injected intraperitoneally with 10 μg TNF-α alone, 20 μg IFN-γ alone, or TNF-α+IFN-γ diluted in endotoxin-free PBS. Animals were under permanent observation, and survival was assessed every 30 minutes. Blood was collected 5 hours after cytokine injection. Blood composition was analyzed using an automated hematology analyzer. Serum lactate dehydrogenase (LDH), alanine aminotransferase (ALT), aspartate aminotransferase (AST), blood urea nitrogen (BUN), and ferritin were analyzed by colorimetry using respective kits (LDH, ALT, AST, and BUN, all from HORIBA; and ferritin from Abcam) according to the manufacturer's instructions.
Flow Cytometry Methods. Peripheral blood was mixed with ACK lysis buffer for 3 minutes to lyse the red blood cells (RBCs). The cells were then stained with monoclonal antibodies for the following markers for flow cytometry: CD11b from eBioscience; F4/80, Ly6C, and Ly6G from BioLegend; and CD19, TCRb, and CD45.2 from Tonbo Biosciences. […]
Histopathology Methods. […] The number of cleaved caspase-3- and TUNEL-positive cells in five high power fields (20×) were counted per mouse.

Row | Molecule | inhibition of cell death in response to TNF-α and IFN-γ treatment [1] | inhibition of cancer cell death induced by TNF-α plus IFN-γ treatment [2] | cleavage of GSDMD and GSDME (combination: GSDME) (BMDMs) | phosphorylation of MLKL (BMDMs) | cleavage of caspase-3, -7 and -8 (BMDMs) | induction of cell death in BMDMs [1] | activation of biochemical markers of PANoptosis in HCT-116 [3] | mortality in mice [4] | other results
1 | CC(=N)NCc1cccc(CN)c1 [1400W, N-[[3-(aminomethyl)phenyl]methyl]-ethanimidamide] | inhibited cell death | failed to inhibit |  |  |  |  |  |  | 
2 | COC(=O)[C@@H](N)CCCNC(=N)N[N+](=O)[O-] [L-NAME, N5-[imino(nitroamino)methyl]-L-ornithine methyl ester] | inhibited cell death | failed to inhibit |  |  |  |  |  |  | 
3 | [NH-]c1c[n+](N2CCOCC2)no1 [SIN-1] |  |  |  |  |  |  |  |  | kinetics of cell death induced by NO donor ([1]; wild-type BMDMs, increasing concentrations of SIN-1): proportional to the NO concentration
4 | IFN-γ: recombinant IFN-γ protein (Peprotech) |  |  | did not induce robust cleavage | failed to induce robust MLKL phosphorylation | reduced cleavage | failed to induce cell death | only weak activation |  | 
5 | TNF-α |  |  | did not induce robust cleavage | failed to induce robust MLKL phosphorylation | reduced cleavage | failed to induce cell death | only weak activation | did not cause significant mortality | tumor weight (COLO-205 cell tumors): minor but significant reduction
6 | IFN-γ: recombinant IFN-γ protein (Peprotech) (protein, UniProt P01579 24-161, looked up) Interferon gamma: QDPYVKEAENLKKYFNAGHSDVADNGTLFLGILKNWKEESDRKIMQSQIVSFYFKLFKNFKDDQSIQKSVETIKEDMNVKFFNSNKKKRDDFEKLTNYSVTDLNVQRKAIHELIQVMAELSPAAKTGKRKRSQMLFRG |  |  |  |  |  |  |  | did not cause significant mortality | 
